Source: ChEMBL document CHEMBL2413072, “Synthesis and in vitro anticancer studies of novel C-2 arylidene congeners of lantadenes” (2013)

Legend:
Format in all cases: functional
HL-60(TB) [1] = test: Growth inhibition of human HL-60(TB) cells assessed as cell growth at 10^-8 M by sulforhodamine B assay; conditions: read-out: Activity
[2] = Growth inhibition of human Hs 578T cells assessed as cell growth at 10^-4 M by sulforhodamine B assay; conditions: read-out: Activity
SF-295 = test: Growth inhibition of human SF295 cells assessed as cell growth at 10^-4 M by sulforhodamine B assay; conditions: read-out: Activity
SNB-75 [3] = test: Growth inhibition of human SNB75 cells assessed as cell growth at 10^-6 M by sulforhodamine B assay; conditions: read-out: Activity
RPMI-8226 = test: Growth inhibition of human RPMI8226 cells assessed as cell growth at 10^-8 M by sulforhodamine B assay; conditions: read-out: Activity
SK-OV-3 [4] = test: Growth inhibition of human SKOV3 cells assessed as cell growth at 10^-7 M by sulforhodamine B assay; conditions: read-out: Activity
SK-MEL-28 = test: Growth inhibition of human SK-MEL-28 cells assessed as cell growth at 10^-4 M by sulforhodamine B assay; conditions: read-out: Activity
DU-145 [5] = test: Growth inhibition of human DU145 cells by sulforhodamine B assay
OVCAR-4 = test: Growth inhibition of human OVCAR4 cells assessed as cell growth at 10^-4 M by sulforhodamine B assay; conditions: read-out: Activity
MDA-MB-468 [6] = test: Growth inhibition of human MDA-MB-468 cells by sulforhodamine B assay
UACC-257 [7] = test: Growth inhibition of human UACC257 cells assessed as cell growth at 10^-4 M by sulforhodamine B assay; conditions: read-out: Activity
HL-60(TB) [8] = test: Growth inhibition of human HL-60(TB) cells assessed as cell growth at 10^-4 M by sulforhodamine B assay; conditions: read-out: Activity
MOLT-4 = test: Growth inhibition of human MOLT4 cells assessed as cell growth at 10^-4 M by sulforhodamine B assay; conditions: read-out: Activity
ACHN = test: Growth inhibition of human ACHN cells assessed as cell growth at 10^-7 M by sulforhodamine B assay; conditions: read-out: Activity
HOP-62 = test: Growth inhibition of human HOP62 cells assessed as cell growth at 10^-7 M by sulforhodamine B assay; conditions: read-out: Activity
KM12 = test: Growth inhibition of human KM12 cells assessed as cell growth at 10^-6 M by sulforhodamine B assay; conditions: read-out: Activity
HCT-15 [9] = test: Growth inhibition of human HCT15 cells assessed as cell growth at 10^-6 M by sulforhodamine B assay; conditions: read-out: Activity
A498 [10] = test: Growth inhibition of human A498 cells assessed as cell growth at 10^-6 M by sulforhodamine B assay; conditions: read-out: Activity
IGROV-1 = test: Growth inhibition of human IGROV1 cells assessed as cell growth at 10^-7 M by sulforhodamine B assay; conditions: read-out: Activity
SF-539 = test: Growth inhibition of human SF539 cells assessed as cell growth at 10^-4 M by sulforhodamine B assay; conditions: read-out: Activity
COLO 205 = test: Growth inhibition of human COLO205 cells assessed as cell growth at 10^-7 M by sulforhodamine B assay; conditions: read-out: Activity
DU-145 [11] = test: Growth inhibition of human DU145 cells assessed as cell growth at 10^-6 M by sulforhodamine B assay; conditions: read-out: Activity
HT-29 [12] = test: Growth inhibition of human HT-29 cells by sulforhodamine B assay
A549 = test: Growth inhibition of human A549/ATCC cells assessed as cell growth at 10^-7 M by sulforhodamine B assay; conditions: read-out: Activity
NCI-H226 = test: Growth inhibition of human NCI-H226 cells by sulforhodamine B assay
NCI-H460 = test: Growth inhibition of human NCI-H460 cells assessed as cell growth at 10^-4 M by sulforhodamine B assay; conditions: read-out: Activity
SR = test: Growth inhibition of human SR cells assessed as cell growth at 10^-6 M by sulforhodamine B assay; conditions: read-out: Activity
CAKI-1 = test: Growth inhibition of human CAKI-1 cells assessed as cell growth at 10^-4 M by sulforhodamine B assay; conditions: read-out: Activity
HCT-15 [13] = test: Growth inhibition of human HCT15 cells assessed as cell growth at 10^-8 M by sulforhodamine B assay; conditions: read-out: Activity
Malme-3M = test: Growth inhibition of human MALME-3M cells assessed as cell growth at 10^-8 M by sulforhodamine B assay; conditions: read-out: Activity
[14] = Growth inhibition of human Hs 578T cells assessed as cell growth at 10^-7 M by sulforhodamine B assay; conditions: read-out: Activity
HT-29 [15] = test: Growth inhibition of human HT-29 cells assessed as cell growth at 10^-7 M by sulforhodamine B assay; conditions: read-out: Activity
SK-OV-3 [16] = test: Growth inhibition of human SKOV3 cells assessed as cell growth at 10^-6 M by sulforhodamine B assay; conditions: read-out: Activity
HL-60(TB) [17] = test: Growth inhibition of human HL-60(TB) cells by sulforhodamine B assay
T47D = test: Growth inhibition of human T47D cells assessed as cell growth at 10^-6 M by sulforhodamine B assay; conditions: read-out: Activity
UACC-257 [18] = test: Growth inhibition of human UACC257 cells assessed as cell growth at 10^-8 M by sulforhodamine B assay; conditions: read-out: Activity
MDA-MB-468 [19] = test: Growth inhibition of human MDA-MB-468 cells assessed as cell growth at 10^-4 M by sulforhodamine B assay; conditions: read-out: Activity
SW-620 = test: Growth inhibition of human SW620 cells assessed as cell growth at 10^-7 M by sulforhodamine B assay; conditions: read-out: Activity
MCF7 = test: Growth inhibition of human MCF7 cells assessed as cell growth at 10^-7 M by sulforhodamine B assay; conditions: read-out: Activity
SNB-75 [20] = test: Growth inhibition of human SNB75 cells assessed as cell growth at 10^-8 M by sulforhodamine B assay; conditions: read-out: Activity
OVCAR-8 = test: Growth inhibition of human OVCAR8 cells assessed as cell growth at 10^-8 M by sulforhodamine B assay; conditions: read-out: Activity
PC-3 = test: Growth inhibition of human PC3 cells assessed as cell growth at 10^-6 M by sulforhodamine B assay; conditions: read-out: Activity
A498 [21] = test: Growth inhibition of human A498 cells assessed as cell growth at 10^-8 M by sulforhodamine B assay; conditions: read-out: Activity
[22] = read-out: LC50 (the source's name)
[23] = read-out: pLC50 (the source's name) (converted)

For `CC(C)=CC(=O)O[C@@H]1CC(C)(C)C[C@H]2C3=CC[C@@H]4[C@@]5(C)CCC(=O)C(C)(C)[C@@H]5CC[C@@]4(C)[C@]3(C)CC[C@@]12C(=O)O`, the growth at 0.01 µM (HL-60(TB) [1]) was 106%, the growth at 100 µM [2] was -10% and the growth at 100 µM (SF-295) was -59%. For the same compound, the growth at 1 µM (SNB-75 [3]) was 87%, the growth at 0.01 µM (RPMI-8226) was 101% and the growth at 0.1 µM (SK-OV-3 [4]) was 106%. For the same compound, the growth at 100 µM (SK-MEL-28) was 6%, the GI50 (DU-145 [5]; read-out: GI50) was 5.12 µM and the CC50 (DU-145 [5]; [22]) was 98.3 µM. It also gave a TGI (DU-145 [5]; read-out: TGI) of 25.1 µM, a GI50 (DU-145 [5]; read-out: pGI50 (converted)) of 5.13 µM and a CC50 (DU-145 [5]; [23]) of 97.7 µM. For the same compound, the TGI (DU-145 [5]; read-out: pTGI (converted)) was 25.1 µM, the growth at 100 µM (OVCAR-4) was 10% and the GI50 (MDA-MB-468 [6]; read-out: GI50) was 2270 nM. It also gave a CC50 (MDA-MB-468 [6]; [22]) of over 100 µM, a TGI (MDA-MB-468 [6]; read-out: TGI) of 13.7 µM and a GI50 (MDA-MB-468 [6]; read-out: pGI50 (converted)) of 2290 nM. For the same compound, the CC50 (MDA-MB-468 [6]; [23]) was over 100 µM, the TGI (MDA-MB-468 [6]; read-out: pTGI (converted)) was 13.8 µM and the growth at 100 µM (UACC-257 [7]) was -15%. For the same compound, the growth at 100 µM (HL-60(TB) [8]) was -38%, the growth at 100 µM (MOLT-4) was -21% and the growth at 0.1 µM (ACHN) was 92%. It also gave a growth at 0.1 µM (HOP-62) of 97%, a growth at 1 µM (KM12) of 48% and a growth at 1 µM (HCT-15 [9]) of 55%. It also gave a growth at 1 µM (A498 [10]) of 61%, a growth at 0.1 µM (IGROV-1) of 108% and a growth at 100 µM (SF-539) of -50%. The growth at 0.1 µM (COLO 205) was 103%, the growth at 1 µM (DU-145 [11]) was 90% and the GI50 (HT-29 [12]; read-out: GI50) was 3.94 µM. The LC50 (50% cell kill) (HT-29 [12]; read-out: LC50) was over 100 µM, the TGI (HT-29 [12]; read-out: TGI) was 32.3 µM and the GI50 (HT-29 [12]; read-out: pGI50 (converted)) was 3.98 µM. For the same compound, the LC50 (50% cell kill) (HT-29 [12]; read-out: pLC50 (converted)) was over 100 µM, the TGI (HT-29 [12]; read-out: pTGI (converted)) was 32.4 µM and the growth at 0.1 µM (A549) was 88%. For the same compound, the GI50 (NCI-H226; read-out: GI50) was 5.68 µM, the LC50 (NCI-H226; read-out: LC50) was over 100 µM and the TGI (NCI-H226; read-out: TGI) was over 100 µM. For the same compound, the GI50 (NCI-H226; read-out: pGI50 (converted)) was 5.62 µM, the LC50 (NCI-H226; read-out: pLC50 (converted)) was over 100 µM and the TGI (NCI-H226; read-out: pTGI (converted)) was over 100 µM. The growth at 100 µM (NCI-H460) was -54%, the growth at 1 µM (SR) was 95% and the growth at 100 µM (CAKI-1) was -2%. For the same compound, the growth at 0.01 µM (HCT-15 [13]) was 93%, the growth at 0.01 µM (Malme-3M) was 94% and the growth at 0.1 µM [14] was 93%. For the same compound, the growth at 0.1 µM (HT-29 [15]) was 95%, the growth at 1 µM (SK-OV-3 [16]) was 108% and the GI50 (HL-60(TB) [17]; read-out: GI50) was 2210 nM. For the same compound, the CC50 (HL-60(TB) [17]; [22]) was over 100 µM, the TGI (HL-60(TB) [17]; read-out: TGI) was 5.38 µM and the GI50 (HL-60(TB) [17]; read-out: pGI50 (converted)) was 2190 nM. It also gave a CC50 (HL-60(TB) [17]; [23]) of over 100 µM, a TGI (HL-60(TB) [17]; read-out: pTGI (converted)) of 5.37 µM and a growth at 1 µM (T47D) of 92%. It also gave a growth at 0.01 µM (UACC-257 [18]) of 88%, a growth at 100 µM (MDA-MB-468 [19]) of -37% and a growth at 0.1 µM (SW-620) of 97%. The growth at 0.1 µM (MCF7) was 90%, the growth at 0.01 µM (SNB-75 [20]) was 90% and the growth at 0.01 µM (OVCAR-8) was 95%. The growth at 1 µM (PC-3) was 56% and the growth at 0.01 µM (A498 [21]) was 86%.
